Test results as given in patent US20250255781A1, “PROCESSES FOR PREPARATION OF 3-D PRINTED PHARMACEUTICAL PRODUCTS” (BRISTOL-MYERS SQUIBB COMPANY, priority 2022, published 2025).

Test: Thermal gravimetric analysis (TGA) of thermal stability
Type: physicochemical
Conditions: heated 25-500° C. at 10° C./min; degradation beyond
Experimental: 2-2.5 mg of polymer and drug samples were carefully weighed and positioned in to a standard aluminium pan. The samples were heated from 25° C. to 500° C. at 10° C./min. The extracted raw data were analysed via TA Universal Analysis software (Universal Analysis 2000, version 4.5A, TA instruments, USA).

Question: For CC(C)Cc1ccc(C(C)C(=O)O)cc1 (stereo not shown) [IBU, Ibuprofen], which “thermally stable when heated up to (TGA)” value is on record?
Answer: Its value is “up to 140 °C”.
